Assay results published in patent US8877759B2, “Aminopyrazines as ATR kinase inhibitors” (Vertex Pharnaceuticals Incorporated, priority 2011, dated 2014).
Read-outs that look alike come from different tables or passages of the source.

Target: T1, full-length ATR (Homo sapiens, UniProt Q13535)
T1 construct: Assays were carried out at 25° C. in the presence of 5 nM full-length ATR
Assay: ATR Inhibition Assay (radioactive-phosphate incorporation)
Type: biochemical
Experimental: Compounds were screened for their ability to inhibit ATR kinase using a radioactive-phosphate incorporation assay. Assays were carried out in a mixture of 50 mM Tris/HCl (pH 7.5), 10 mM MgCl2 and 1 mM DTT.
Assays were carried out at 25° C. in the presence of 5 nM full-length ATR. An assay stock buffer solution was prepared containing all of the reagents listed above, with the exception of ATP and the test compound of interest. […] The plate was pre-incubated for 10 minutes at 25° C. and the reaction initiated by addition of 15 μL [γ-33P]ATP (final concentration 10 μM).
The reaction was stopped after […] by the addition of 30 μL 0.1M phosphoric acid containing 2 mM ATP. A multiscreen phosphocellulose filter 96-well plate (Millipore, Cat no. MAPHN0B50) was pretreated with 100 μL 0.2M phosphoric acid prior to the addition of 45 μL of the stopped assay mixture. The plate was washed with 5×200 μL 0.2M phosphoric acid.
After removing mean background values for all of the data points, Ki(app) data were calculated from non-linear regression analysis of the initial rate data using the Prism software package (GraphPad Prism version 3.0cx for Macintosh, GraphPad Software, San Diego Calif., USA).

[1] = Ki(app), 5 nM full-length ATR, 10 μM [γ-33P]ATP, 800 μM target peptide, 25° C.

T1 sequence (Q13535 whole entry): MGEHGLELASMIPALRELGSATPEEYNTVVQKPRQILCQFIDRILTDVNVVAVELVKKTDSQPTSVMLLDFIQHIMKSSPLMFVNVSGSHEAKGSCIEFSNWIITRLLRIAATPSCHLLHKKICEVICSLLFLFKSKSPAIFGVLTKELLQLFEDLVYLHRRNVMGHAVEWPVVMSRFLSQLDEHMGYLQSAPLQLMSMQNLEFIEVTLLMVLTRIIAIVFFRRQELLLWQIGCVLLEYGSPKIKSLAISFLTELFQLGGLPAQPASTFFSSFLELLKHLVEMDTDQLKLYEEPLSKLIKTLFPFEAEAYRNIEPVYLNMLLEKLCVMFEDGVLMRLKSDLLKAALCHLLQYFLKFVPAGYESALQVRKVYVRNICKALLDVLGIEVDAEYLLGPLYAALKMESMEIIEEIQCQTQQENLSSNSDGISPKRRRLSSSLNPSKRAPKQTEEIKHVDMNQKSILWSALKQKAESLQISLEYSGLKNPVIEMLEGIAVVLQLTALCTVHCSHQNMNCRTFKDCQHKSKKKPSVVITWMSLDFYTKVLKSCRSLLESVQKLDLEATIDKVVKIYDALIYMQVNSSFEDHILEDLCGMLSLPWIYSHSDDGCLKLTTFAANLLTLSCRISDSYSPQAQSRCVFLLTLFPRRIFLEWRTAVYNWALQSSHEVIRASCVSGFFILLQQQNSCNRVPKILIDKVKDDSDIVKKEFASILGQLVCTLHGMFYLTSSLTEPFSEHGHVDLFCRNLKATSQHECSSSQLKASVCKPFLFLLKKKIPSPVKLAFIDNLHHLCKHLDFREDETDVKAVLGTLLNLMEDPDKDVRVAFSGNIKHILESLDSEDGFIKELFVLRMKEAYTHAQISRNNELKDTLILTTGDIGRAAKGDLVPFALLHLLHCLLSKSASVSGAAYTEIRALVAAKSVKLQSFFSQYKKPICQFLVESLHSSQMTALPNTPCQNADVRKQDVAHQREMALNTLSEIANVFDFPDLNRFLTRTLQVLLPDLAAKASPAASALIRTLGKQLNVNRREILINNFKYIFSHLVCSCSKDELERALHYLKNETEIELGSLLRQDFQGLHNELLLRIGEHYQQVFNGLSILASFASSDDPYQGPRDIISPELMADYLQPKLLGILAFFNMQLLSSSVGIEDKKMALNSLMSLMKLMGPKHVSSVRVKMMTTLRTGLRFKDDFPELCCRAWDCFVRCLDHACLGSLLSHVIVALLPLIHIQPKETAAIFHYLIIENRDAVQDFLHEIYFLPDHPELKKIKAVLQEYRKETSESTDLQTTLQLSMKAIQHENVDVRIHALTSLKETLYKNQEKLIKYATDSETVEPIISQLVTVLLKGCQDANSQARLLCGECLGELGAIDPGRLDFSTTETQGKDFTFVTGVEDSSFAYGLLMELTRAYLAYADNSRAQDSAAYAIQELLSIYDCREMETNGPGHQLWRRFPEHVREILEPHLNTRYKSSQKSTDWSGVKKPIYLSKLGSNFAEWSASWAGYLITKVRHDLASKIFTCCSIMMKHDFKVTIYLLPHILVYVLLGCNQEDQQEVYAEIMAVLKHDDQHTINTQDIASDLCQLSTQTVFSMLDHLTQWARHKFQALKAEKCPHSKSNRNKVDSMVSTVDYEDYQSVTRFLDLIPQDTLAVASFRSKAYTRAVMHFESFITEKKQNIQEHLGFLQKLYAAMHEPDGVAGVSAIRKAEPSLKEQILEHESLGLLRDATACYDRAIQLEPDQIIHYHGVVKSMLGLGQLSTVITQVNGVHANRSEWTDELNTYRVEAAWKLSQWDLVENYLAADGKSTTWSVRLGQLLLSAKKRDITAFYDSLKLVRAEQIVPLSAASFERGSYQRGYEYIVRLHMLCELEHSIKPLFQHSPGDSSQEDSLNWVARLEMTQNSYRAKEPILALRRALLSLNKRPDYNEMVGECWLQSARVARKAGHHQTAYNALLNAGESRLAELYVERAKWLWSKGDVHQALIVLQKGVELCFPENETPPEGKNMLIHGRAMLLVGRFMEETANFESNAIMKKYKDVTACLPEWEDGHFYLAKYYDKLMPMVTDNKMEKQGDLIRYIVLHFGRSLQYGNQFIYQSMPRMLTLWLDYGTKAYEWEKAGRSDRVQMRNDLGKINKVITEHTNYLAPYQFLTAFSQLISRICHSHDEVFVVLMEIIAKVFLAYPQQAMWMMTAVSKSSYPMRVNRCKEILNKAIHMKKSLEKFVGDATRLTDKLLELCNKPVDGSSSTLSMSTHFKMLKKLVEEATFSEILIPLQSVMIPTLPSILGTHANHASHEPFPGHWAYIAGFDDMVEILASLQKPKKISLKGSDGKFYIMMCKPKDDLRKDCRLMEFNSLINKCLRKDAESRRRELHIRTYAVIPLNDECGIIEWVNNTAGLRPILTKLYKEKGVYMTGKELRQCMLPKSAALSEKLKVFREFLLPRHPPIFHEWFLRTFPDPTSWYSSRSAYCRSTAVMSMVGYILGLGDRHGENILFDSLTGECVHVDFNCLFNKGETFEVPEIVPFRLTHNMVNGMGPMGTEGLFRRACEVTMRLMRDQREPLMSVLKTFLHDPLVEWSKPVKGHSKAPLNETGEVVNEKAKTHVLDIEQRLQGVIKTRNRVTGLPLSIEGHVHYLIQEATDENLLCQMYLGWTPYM

Structure (SMILES)	Ki	other results
CNCc1ccc(-c2cc(-c3nc(-c4ccnc(C(C)(C)C#N)c4)cnc3N)on2)cc1 [Compound I-1, 2-[4-[5-amino-6-[3-[4-(methylaminomethyl)phenyl]isoxazol-5-yl]pyrazin-2-yl]-2-pyridyl]-2-methyl-propanenitrile]	< 1 nM	
CCC(C#N)(CC)c1cc(-c2cnc(N)c(-c3cc(-c4ccc(CNC)cc4)no3)n2)ccn1 [Compound I-2, 2-[4-[5-amino-6-[3-[4-(methylaminomethyl)phenyl]isoxazol-5-yl]pyrazin-2-yl]-2-pyridyl]-2-ethyl-butanenitrile]	< 1 nM	
CCC(C#N)c1cc(-c2cnc(N)c(-c3cc(-c4ccc(CNC)cc4)no3)n2)ccn1 (stereo not drawn) [Compound I-3, 2-[4-[5-amino-6-[3-[4-(methylaminomethyl)phenyl]isoxazol-5-yl]pyrazin-2-yl]-2-pyridyl]butanenitrile]	< 1 nM	
CNCc1ccc(-c2nnc(-c3nc(-c4ccnc(C(C)(C)C#N)c4)cnc3N)o2)cc1 [Compound I-4, 2-[4-[5-amino-6-[5-[4-(methylaminomethyl)phenyl]-1,3,4-oxadiazol-2-yl]pyrazin-2-yl]-2-pyridyl]-2-methyl-propanenitrile]	< 1 nM	
CC(C)(C#N)c1cc(-c2cnc(N)c(-c3cc(-c4ccccc4)no3)n2)ccn1 [Compound I-5, 2-[4-[5-amino-6-(3-phenylisoxazol-5-yl)pyrazin-2-yl]-2-pyridyl]-2-methyl-propanenitrile]	< 1 nM	
N#CC1(c2cc(-c3cnc(N)c(-c4cc(-c5ccccc5)no4)n3)ccn2)CCNCC1 [Compound I-6, 4-[4-[5-amino-6-(3-phenylisoxazol-5-yl)pyrazin-2-yl]-2-pyridyl]piperidine-4-carbonitrile]		ATR Ki [1]: +++ (Compounds with a Ki value >5 nM but ≦1 nM are marked with “+++.”)
N#CC1(c2cc(-c3cnc(N)c(-c4cc(-c5ccccc5)no4)n3)ccn2)CCOCC1 [Compound I-7, 4-[4-[5-amino-6-(3-phenylisoxazol-5-yl)pyrazin-2-yl]-2-pyridyl]tetrahydropyran-4-carbonitrile]	< 1 nM	
Cc1ccsc1-c1cc(-c2nc(-c3ccnc(C(C)(C)C#N)c3)cnc2N)on1 [Compound I-8, 2-[4-[5-amino-6-[3-(3-methyl-2-thienyl)isoxazol-5-yl]pyrazin-2-yl]-2-pyridyl]-2-methyl-propanenitrile]	< 1 nM	
CNCc1ccc(-c2cc(-c3nc(-c4ccnc(C5(C#N)CCOCC5)c4)cnc3N)on2)cc1 [Compound I-9, 4-[4-[5-amino-6-[3-[4-(methylaminomethyl)phenyl]isoxazol-5-yl]pyrazin-2-yl]-2-pyridyl]tetrahydropyran-4-carbonitrile]	< 1 nM	
CNCc1ccc(-c2cc(-c3nc(-c4ccnc(C(C)(C)C(N)=O)c4)cnc3N)on2)cc1 [Compound I-10, 2-[4-[5-amino-6-[3-[4-(methylaminomethyl)phenyl]isoxazol-5-yl]pyrazin-2-yl]-2-pyridyl]-2-methyl-propanamide]	< 1 nM	
CNCc1ccc(-c2cc(-c3nc(-c4ccnc(C(C)(C)C(=O)N(C)C)c4)cnc3N)on2)cc1 [Compound I-11, 2-[4-[5-amino-6-[3-[4-(methylaminomethyl)phenyl]isoxazol-5-yl]pyrazin-2-yl]-2-pyridyl]-N,N,2-trimethyl-propanamide]	< 1 nM	
N#CC1(c2cc(-c3cnc(N)c(-c4cc(-c5ccccc5)no4)n3)ccn2)CCCNC1 (stereo not drawn) [Compound I-12, 3-[4-[5-amino-6-(3-phenylisoxazol-5-yl)pyrazin-2-yl]-2-pyridyl]piperidine-3-carbonitrile]		ATR Ki [1]: +++ (Compounds with a Ki value >5 nM but ≦1 nM are marked with “+++.”)
CNCc1ccc(-c2cc(-c3nc(-c4ccnc(C5(C(N)=O)CCOCC5)c4)cnc3N)on2)cc1 [Compound I-13, 4-[4-[5-amino-6-[3-[4-(methylaminomethyl)phenyl]isoxazol-5-yl]pyrazin-2-yl]-2-pyridyl]tetrahydropyran-4-carboxamide]	< 1 nM	
CNCc1ccc(-c2cc(-c3nc(-c4ccnc(C(C)(C)S(C)(=O)=O)c4)cnc3N)on2)cc1 [Compound I-14, 3-[3-[4-(methylaminomethyl)phenyl]isoxazol-5-yl]-5-[2-(1-methyl-1-methylsulfonyl-ethyl)-4-pyridyl]pyrazin-2-amine]	< 1 nM	
CNCc1ccc(-c2cc(-c3nc(-c4ccnc(C(C)S(C)(=O)=O)c4)cnc3N)on2)cc1 (stereo not drawn) [Compound I-15, 3-[3-[4-(methylaminomethyl)phenyl]isoxazol-5-yl]-5-[2-(1-methylsulfonylethyl)-4-pyridyl]pyrazin-2-amine]	< 1 nM	
CC(C)(C#N)c1cc(-c2cnc(N)c(-c3cc(-c4ccc(C(N)CF)cc4)no3)n2)ccn1 (stereo not drawn) [Compound I-16, 2-[4-[5-amino-6-[3-[4-(1-amino-2-fluoro-ethyl)phenyl]isoxazol-5-yl]pyrazin-2-yl]-2-pyridyl]-2-methyl-propanenitrile]	< 1 nM	
CC(C)(C#N)c1cc(-c2cnc(N)c(-c3cc(-c4ccc(CN[C@@H]5CCOC5)cc4)no3)n2)ccn1 [Compound I-17, 2-[4-[5-amino-6-[3-[4-[[[(3R)-tetrahydrofuran-3-yl]amino]methyl]phenyl]isoxazol-5-yl]pyrazin-2-yl]-2-pyridyl]-2-methyl-propanenitrile]	< 1 nM	
CC(C)(C#N)c1cc(-c2cnc(N)c(-c3cc(-c4ccc(CNC5COC5)cc4)no3)n2)ccn1 [Compound I-18, 2-[4-[5-amino-6-[3-[4-[(oxetan-3-ylamino)methyl]phenyl]isoxazol-5-yl]pyrazin-2-yl]-2-pyridyl]-2-methyl-propanenitrile]	< 1 nM	
CC(C)(C#N)c1cc(-c2cnc(N)c(-c3cc(-c4ccc(CN[C@H]5CCOC5)cc4)no3)n2)ccn1 [Compound I-19, 2-[4-[5-amino-6-[3-[4-[[[(3S)-tetrahydrofuran-3-yl]amino]methyl]phenyl]isoxazol-5-yl]pyrazin-2-yl]-2-pyridyl]-2-methyl-propanenitrile]		Ki [1]: < 1 nM
CC(C)(C(=O)N1CCNCC1)c1cc(-c2cnc(N)c(-c3cc(-c4ccccc4)no3)n2)ccn1 [Compound I-20, 2-[4-[5-amino-6-(3-phenylisoxazol-5-yl)pyrazin-2-yl]-2-pyridyl]-2-methyl-1-piperazin-1-yl-propan-1-one]	5 to 20 nM	
CC(C)(C(=O)NCCN1CCOCC1)c1cc(-c2cnc(N)c(-c3cc(-c4ccccc4)no3)n2)ccn1 [Compound I-21, 2-[4-[5-amino-6-(3-phenylisoxazol-5-yl)pyrazin-2-yl]-2-pyridyl]-2-methyl-N-(2-morpholinoethyl)propanamide]	5 to 20 nM	
CC(C)(c1cc(-c2cnc(N)c(-c3cc(-c4ccccc4)no3)n2)ccn1)S(C)(=O)=O [Compound I-22, 5-[2-(1-methyl-1-methylsulfonyl-ethyl)-4-pyridyl]-3-(3-phenylisoxazol-5-yl)pyrazin-2-amine]	< 1 nM	
CC(C)(c1cc(-c2cnc(N)c(-c3cc(-c4ccccc4)no3)n2)ccn1)S(=O)(=O)C1CCNCC1 [Compound I-23, 5-[2-[1-methyl-1-(4-piperidylsulfonyl)ethyl]-4-pyridyl]-3-(3-phenylisoxazol-5-yl)pyrazin-2-amine]		ATR Ki [1]: +++ (Compounds with a Ki value >5 nM but ≦1 nM are marked with “+++.”)
Cc1ccsc1-c1cc(-c2nc(-c3ccnc(C4(C#N)CCNCC4)c3)cnc2N)on1 [Compound I-24, 4-[4-[5-amino-6-[3-(3-methyl-2-thienyl)isoxazol-5-yl]pyrazin-2-yl]-2-pyridyl]piperidine-4-carbonitrile]		ATR Ki [1]: +++ (Compounds with a Ki value >5 nM but ≦1 nM are marked with “+++.”)
Cc1ccccc1-c1cc(-c2nc(-c3ccnc(C4(C#N)CCNCC4)c3)cnc2N)on1 [Compound I-25, 4-[4-[5-amino-6-[3-(o-tolyl)isoxazol-5-yl]pyrazin-2-yl]-2-pyridyl]piperidine-4-carbonitrile]	5 to 20 nM	
N#CC1(c2cc(-c3cnc(N)c(-c4cc(-c5ccccc5O)no4)n3)ccn2)CCNCC1 [Compound I-26, 4-[4-[5-amino-6-[3-(2-hydroxyphenyl)isoxazol-5-yl]pyrazin-2-yl]-2-pyridyl]piperidine-4-carbonitrile]		ATR Ki [1]: +++ (Compounds with a Ki value >5 nM but ≦1 nM are marked with “+++.”)
COc1ccccc1-c1cc(-c2nc(-c3ccnc(C4(C#N)CCNCC4)c3)cnc2N)on1 [Compound I-27, 4-[4-[5-amino-6-[3-(2-methoxyphenyl)isoxazol-5-yl]pyrazin-2-yl]-2-pyridyl]piperidine-4-carbonitrile]		ATR Ki [1]: +++ (Compounds with a Ki value >5 nM but ≦1 nM are marked with “+++.”)
N#CC1(c2cc(-c3cnc(N)c(-c4cc(-c5ccccc5F)no4)n3)ccn2)CCNCC1 [Compound I-28, 4-(4-(5-amino-6-(3-(2-fluorophenyl)isoxazol-5-yl)pyrazin-2-yl)pyridin-2-yl)piperidine-4-carbonitrile]		ATR Ki [1]: +++ (Compounds with a Ki value >5 nM but ≦1 nM are marked with “+++.”)
COc1cccc(C)c1-c1cc(-c2nc(-c3ccnc(C4(C#N)CCNCC4)c3)cnc2N)on1 [Compound I-29, 4-[4-[5-amino-6-[3-(2-methoxy-6-methyl-phenyl)isoxazol-5-yl]pyrazin-2-yl]-2-pyridyl]piperidine-4-carbonitrile]	20 to 100 nM	
N#CC1(c2cc(-c3cnc(N)c(-c4cc(-c5cccs5)no4)n3)ccn2)CCNCC1 [Compound I-30, 4-[4-[5-amino-6-[3-(2-thienyl)isoxazol-5-yl]pyrazin-2-yl]-2-pyridyl]piperidine-4-carbonitrile]	< 1 nM	
